Laboratory results: patent US9801896B2, “Compositions comprising S-adenosylmethionine and a gallic acid ester” (Methylation Sciences International SRL, priority 2012, dated 2017)
Values belong to the molecule of their own block, whether it stands above or below them.

Assays:
[1] = PAMPA permeability of SAMe with and without propyl gallate (Example 4); type: in vitro ADME; settings: for Average Effective Permeability: PAMPA, SAMe 2 mM, 5 hr
Experimental: Using a PAMPA (parallel artificial membrane permeability assay) model, the permeability of SAMe was measured in the presence and absence of propyl gallate.
PAMPA methods were used to determine the permeability of substances from a donor compartment, through a lipid-infused artificial membrane into an acceptor compartment. A multi-well microtitre plate was used for the donor and a membrane/acceptor compartment is placed on top. At the beginning of the test, SAMe disulfate tosylate (with or without different concentrations of propyl gallate as indicated in Table 2 below) was added to the donor compartment, and the acceptor compartment remained drug-free. After an incubation period, the compartments were separated and the amount of SAMe was measured in each compartment. Mass balance allows calculation of SAMe that remains in the membrane.

[2] = Beagle pharmacokinetics of SAMe tablets with various amounts of propyl gallate (Example 6)
Experimental: Tablets comprising SAMe and various amounts of propyl gallate were generated by mixing S-adenosyl-L-methionine disulfate tosylate granules (equivalent to 400 mg of SAMe ion) with the various amounts of propyl gallate listed in Table 4 below. Each mixture was pressed into a tablet and coated followed by dissolution profiling and in vivo pharmacokinetic analysis using beagle dogs.
For in vivo studies, fasted male beagle dogs (7-10 kg) were used as described above. Each group (6 dogs for SAMe/propyl gallate and 6 dogs for the SAMe control lacking propyl gallate) were dosed with a single orally administered enteric coated tablet, under fasted conditions, followed by 5 mL of purified water orally with a syringe to facilitate swallowing. Pharmacokinetic blood samples (2 mL each) for SAMe analysis were collected from the jugular vein using the following time points: pre-dose, 20 and 40 minutes, 1, 1.5, 2, 3, 4, 6, and 8 hours after treatment. The venipuncture blood samples were collected into tubes containing the anticoagulant K2-EDTA, and stored on wet ice pending processing. Following collection, samples were centrifuged (at 4° C.) to separate the plasma fraction from the blood cells. […]
The concentration of SAMe in dog plasma was determined using the well established LC/MS/MS method. […]

[3] = Beagle plasma SAMe after tablets of SAMe co-formulated with alkyl gallates (Example 1); type: in vivo; settings: fasted male beagle dogs, single oral enteric coated tablet, 400 mg SAMe ion co-formulated with 25 mg gallic acid ester; FIG. 1; compared with other formulations
Experimental: Tablets comprising SAMe and various alkyl gallates of different chemical structure were generated by mixing SAMe with either methyl gallate, ethyl gallate, butyl gallate, isobutyl gallate, isoamyl gallate or octyl gallate (see structures below). Tablets were then administered to Beagle dogs and blood samples were withdrawn over time. Analysis of concentrations of SAMe in plasma was used to compare the effects of these gallic acid esters on the uptake of orally administered SAMe in the blood.
Tablets were generated by mixing 400 mg SAMe ion (from SAMe disulfate tosylate) with 25 mg gallic acid ester along with excipients (microcrystalline cellulose, sodium starch glycolate, silicon dioxide, and magnesium stearate) to make up the 1025 mg tablet. A commercial seal coat and then a commercial enteric coat was applied to the tablets prior to dissolution testing. Detailed dissolution profiling was performed according to USP standards at either pH 6.8 or 6.0 on each set of tablets to ensure that adequate dissolution was achieved prior to in vivo pharmacokinetic analysis.
The study protocol was approved by the institution's Animal Care Committee, and all animals were cared for according to regulations proposed by Agriculture Canada and the USDA.
Ten different formulations were tested in the present study. 400 mg SAMe co-formulated with 25 mg propyl gallate was compared to: SAMe control tablets (i.e., with no propyl gallate); SAMe tablets co-administered with separate 25 mg propyl gallate tablets; a commercially available SAMe product (400 mg); or 400 mg SAMe with 25 mg of either methyl gallate, ethyl gallate, butyl gallate, isobutyl gallate, isoamyl gallate or octyl gallate.

Caco-2 cell monolayers = assay: Permeability of SAMe across Caco-2 cell monolayers with propyl gallate (Example 3)
Experimental: The Caco-2 cell line is derived from a human colorectal carcinoma and is widely used for in vitro cell culture models for the study of gastrointestinal drug absorption (Stewart, B., (1995) Pharm. Res. 12:693). In these models, pure cell lines are grown on a semi-permeable membrane. Drug formulations are placed on the apical or basolateral side of the cell monolayer and transport is determined via measurement of drug concentrations on the other side of the membrane.
The Caco-2 cell line utilized here was from the American Type Culture Collection (ATCC). Caco-2 cells are grown in Dulbecco's modified Eagle's medium (DMEM, Gibco) supplemented with 20% FBS (fetal bovine serum, Gibco), 100 uM non-essential amino acids (NEAA, Gibco) and 2 mM L-glutamine (Gibco). […] The cells used in transport studies were grown for 3 days before the experiments. The culturing conditions were 37° C. in an atmosphere of 5% CO2 and 100% humidity.
A 2 mM aqueous solution of SAMe disulfate tosylate was added on the apical or basolateral side according to the manufacturer's procedure for the Caco-2 kit.
The permeability (Papp) of SAMe is calculated using the following formula: […]
Where dQ/dt is the rate of permeation, C0 is the initial concentration of test agent, and A is the area of the monolayer.

[4] = Beagle plasma SAMe after capsules of SAMe with gallate-related molecules (Example 2); type: in vivo; settings: beagle dogs, single oral capsule, 100 mg SAMe ion with 100 mg agent; versus BHT, propyl paraben and gallic acid; FIGS. 2A, 2B
Experimental: BHT, propyl paraben and propyl gallate are food-grade antioxidants which have often been used in combination. […] The capsules also contained additional excipients (Microcrystalline cellulose, Sodium Starch Glycolate, Colloidal Silicon Dioxide, and Magnesium Stearate). Capsules were manually filled and in some embodiments, a layer of commercial seal coat was applied to the capsules using a fluid bed coater. Beagle dogs were administered a single orally delivered dose as described above.

Molecule: C[S+](CC[C@H](N)C(=O)[O-])C[C@H]1O[C@@H](n2cnc3c(N)ncnc32)[C@H](O)[C@@H]1O (stereo partly drawn) [SAMe, S-adenosyl-L-methionine]
Average Effective Permeability ([1]; Propyl Gallate 0 mM): 0.0042 ×10⁻⁶ cm/s
Average Effective Permeability ([1]; Propyl Gallate 0.2 mM): 0.002 ×10⁻⁶ cm/s
Average Effective Permeability ([1]; Propyl Gallate 2 mM): 0.0048 ×10⁻⁶ cm/s
transport of SAMe across the PAMPA membrane ([1]; summary of Table 2): essentially no transport
AUC(0-inf.) ± SD ([2]; beagle, oral tablet, SAMe 400 mg, Propyl Gallate 6.25 mg): 21,734 ± 9848^ hr*ng/mL

Molecule: CCCCOC(=O)c1cc(O)c(O)c(O)c1 [butyl gallate]
maximum SAMe plasma concentration (Cmax), uptake into the plasma [3]: did not result in pharmacokinetics even close to that of SAMe-propyl gallate formulations

Molecule: S-adenosyl-L-methionine disulfate tosylate [SAMe disulfate tosylate]
apparent permeability coefficient (Papp), apical to basolateral (Caco-2 cell monolayers; Caco-2, apical to basolateral, SAMe salt alone): 0.41 ×10⁻⁶ cm/s
apparent permeability coefficient (Papp), basolateral to apical (Caco-2 cell monolayers; Caco-2, basolateral to apical, SAMe salt alone): 0.5 ×10⁻⁶ cm/s

More lines, now with the values ahead:

maximum SAMe plasma concentration (Cmax), uptake into the plasma [3]: superior uptake into the plasma
Molecule: CCOC(=O)c1cc(O)c(O)c(O)c1 [ethyl gallate]

maximum SAMe plasma concentration (Cmax), uptake into the plasma [3]: superior uptake into the plasma
Molecule: CC(C)CCOC(=O)c1cc(O)c(O)c(O)c1 [isoamyl gallate]

maximum SAMe plasma concentration (Cmax), uptake into the plasma [3]: superior uptake into the plasma
Molecule: CCCCCCCCOC(=O)c1cc(O)c(O)c(O)c1 [octyl gallate]

effect of propyl gallate on SAMe transport in Caco-2 cells (Caco-2 cell monolayers; summary of Table 1): increases SAMe transport
plasma SAMe Cmax and AUC, SAMe uptake into the blood [4]: superior and surprising ability
relationship of propyl gallate with SAMe uptake in vivo ([2]; dog, in vivo): dose-response relationship
maximum SAMe plasma concentration (Cmax), uptake into the plasma [3]: superior uptake into the plasma
Molecule: CCCOC(=O)c1cc(O)c(O)c(O)c1 [propyl gallate]
